Patent US20250177408A1, “INHIBITOR OF INTERACTION BETWEEN YAP/TAZ AND TEAD, PREPARATION THEREOF, PHARMACEUTICAL COMPOSITION THEREOF AND USE THEREOF” (ETERN BIOPHARMA (SHANGHAI) CO., LTD., priority 2022, published 2025)

What was measured:
[1] = target: YAP-TEAD protein interaction (His-TEAD1 (209-426) protein, Bio-YAP peptide (60-100)) (Homo sapiens, UniProt P28347); assay: YAP-TEAD protein interaction HTRF experiment; type: binding; details: His-TEAD1 (209-426) 10 nM, Bio-YAP peptide 50 nM, read-out: Activity of each compound in blocking YAP-TEAD protein interaction (grades of IC50 values)
YAP-TEAD protein interaction (His-TEAD1 (209-426) protein, Bio-YAP peptide (60-100)), sequence (P28347 209-426): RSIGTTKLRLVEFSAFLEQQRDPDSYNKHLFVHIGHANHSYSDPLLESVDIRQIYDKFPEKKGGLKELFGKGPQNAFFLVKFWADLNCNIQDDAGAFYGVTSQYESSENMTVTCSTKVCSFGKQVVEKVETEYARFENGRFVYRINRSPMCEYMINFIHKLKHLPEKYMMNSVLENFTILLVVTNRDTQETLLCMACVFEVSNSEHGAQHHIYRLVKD
Method in brief: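 His-TEAD1 (209-426) at 10 nM final was preincubated 20 min at RT with compounds (10-point 3-fold dilutions, duplicates, 1% DMSO), then Bio-YAP peptide, 10 min. Anti-His-Eu cryptate/streptavidin-XL665 added for 1 h at RT; HTRF read at ex 320 nm, Em665/Em620 ratio ×10000, IC50 from % inhibition.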

[2] = system: MSTO-211H cells; assay: Cell proliferation inhibition experiment (CellTiter-Glo); type: cell-based; details: Homo sapiens, 96 hours, read-out: Inhibitory activity of each compound on the proliferation of MSTO-211H cells (grades of IC50 values)
Method in brief: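 MSTO-211H cells (1500/well, RPMI1640 + 10% FBS) were plated overnight at 37° C, 5% CO2, then exposed in duplicate to 9 three-fold compound dilutions (DMSO ≤0.5% final) for 96 hours. Viability was read as CellTiter-Glo luminescence after 10 min at room temperature. IC50 was derived from inhibition of the CTG signal.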

| Compound | IC50 [1] | IC50 [2] |
| --- | --- | --- |
| NC(=O)c1cc2c(c(F)c1-c1c(Cl)c(F)cc3c1C[C@](c1ccccc1)([C@@H]1CCCN1)O3)Oc1c(cnn(CC(F)F)c1=O)O2 (atropisomer, axis not shown) [Compound 120, (S)-8-((S)-5-Chloro-6-fluoro-2-phenyl-2-((S)-pyrrolidin-2-yl)-2,3-dihydrobenzofuran-4-yl)-9-fluoro-2-(2,2-difluoroethyl)-1-oxo-1,2-dihydrobenzo[5,6][1,4]dioxo[2,3-d]pyridazine-7-carboxamide] | < 50 nM | < 200 nM |
| [2H]C1([2H])CC[C@]([2H])([C@@]2(c3ccccc3)Cc3c(cc(F)c(Cl)c3-c3c(C(=O)NC)cc4c(c3F)Oc3c(cnn(CC(F)(F)F)c3=O)O4)O2)N1 (atropisomer, axis not shown) [Compound 157, (S)-8-((S)-5-Chloro-6-fluoro-2-phenyl-2-((S)-pyrrolidin-2-yl-2,5,5-d3)-2,3-dihydrobenzofuran-4-yl)-9-fluoro-N-methyl-1-oxo-2-(2,2,2-trifluoroethyl)-1,2-dihydroxybenzo[5,6][1,4] dioxo[2,3-d]pyridazine-7-carboxamide] | < 50 nM | < 200 nM |
| [2H]C([2H])([2H])n1ncc2c(c1=O)Oc1c(cc(C(=O)NC)c(-c3c(Cl)c(F)cc4c3C[C@](c3ccccc3)([C@@H]3CCCN3)O4)c1F)O2 (atropisomer, axis not shown) [Compound 151, (S)-8-((S)-5-Chloro-6-fluoro-2-phenyl-2-((S)-pyrrolidin-2-yl)-2,3-dihydrobenzofuran-4-yl)-9-fluoro-N-methyl-2-(methyl-d3)-1-oxo-1,2-dihydrobenzo[5,6][1,4]dioxo [2,3-d]pyridazine-7-carboxamide] | < 50 nM | < 200 nM |
| [2H]C1([2H])CC[C@]([2H])([C@@]2(c3ccccc3)Cc3c(cc(F)c(Cl)c3-c3c(C(N)=O)cc4c(c3F)Oc3c(cnn(C5CC(F)(F)C5)c3=O)O4)O2)N1 (atropisomer, axis not shown) [Compound 154, (S)-8-((S)-5-Chloro-6-fluoro-2-phenyl-2-((S)-pyrrolidin-2-yl-2,5,5-d3)-2,3-dihydrobenzofuran-4-yl)-2-(3,3-difluorocyclobutyl)-9-fluoro-1-oxo-1,2-dihydrobenzo[5,6][1,4]dioxo [2,3-d]pyridazine-7-carboxamide] | < 50 nM | < 200 nM |
| Cn1cc2c(n1)COc1c-2cc(C(N)=O)c(-c2c(Cl)c(F)cc3c2C[C@](c2ccccc2)([C@@H]2CCC(=O)N2)O3)c1F (atropisomer, axis not shown) [Compound 115, (S)-7-((S)-5-Chloro-6-fluoro-2-((S)-5-oxopyrrolidin-2-yl)-2-phenyl-2,3-dihydrobenzofuran-4-yl)-6-fluoro-2-methyl-2,4-dihydrochromeno[3,4-c]pyrazole-8-carboxamide] | < 50 nM | 500 to 5000 nM |
| NC(=O)c1cc2cn[nH]c2c(F)c1-c1c(Cl)c(F)cc2c1C[C@](c1ccccc1)([C@@H]1CCCN1)O2 (atropisomer, axis not shown) [Compound I-30, (S)-6-((S)-5-Chloro-6-fluoro-2-phenyl-2-((S)-pyrrolidin-2-yl)-2,3-dihydrobenzofuran-4-yl)-7-fluoro-1H-indazole-5-carboxamide] | < 50 nM | 200 to 500 nM |
| COCCn1ncc2c(c1=O)Oc1c(cc(C(N)=O)c(-c3c(Cl)c(F)cc4c3C[C@](c3ccccc3)([C@@H]3CCCN3)O4)c1F)O2 (atropisomer, axis not shown) [Compound 149, (R)-8-((S)-5-Chloro-6-fluoro-2-phenyl-2-((S)-pyrrolidin-2-yl)-2,3-dihydrobenzofuran-4-yl)-9-fluoro-2-(2-methoxyethyl)-1-oxo-1,2-dihydrobenzo[5,6][1,4]dioxa[2,3-d]pyridazine-7-carboxamide] | < 50 nM | < 200 nM |
| CO[C@H]1CC[C@H](NC[C@@]2(c3ccccc3)Cc3c(cc(F)c(Cl)c3-c3c(C(N)=O)cc4c(c3F)OCc3nn(C)cc3-4)O2)CC1 (atropisomer, axis not shown) [Compound 78, (S)-7-((S)-5-Chloro-6-fluoro-2-((((1R,4S)-4-methoxycyclohexyl)amino)methyl)-2-phenyl-2,3-dihydrobenzofuran-4-yl)-6-fluoro-2-methyl-2,4-dihydrochromeno[3,4-c]pyrazole-8-carboxamide] | < 50 nM | < 200 nM |
| NC(=O)c1cc2c(c(F)c1-c1c(Cl)c(F)cc3c1C[C@](c1ccccc1)([C@@H]1CCCN1)O3)Oc1cnn(CCC(F)(F)F)c(=O)c1O2 (atropisomer, axis not shown) [Compound 134, (S)-8-((S)-5-Chloro-6-fluoro-2-phenyl-2-((S)-pyrrolidin-2-yl)-2,3-dihydrobenzofuran-4-yl)-9-fluoro-3-(3,3,3-trifluoropropyl)-4-oxo-3,4-dihydrobenzo[5,6][1,4]dioxo[2,3-d]pyridazine-7-carboxamide] | < 50 nM | 500 to 5000 nM |
| Cn1nc2c(cc1=O)Oc1c(cc(C(N)=O)c(-c3c(Cl)c(F)cc4c3C[C@](c3ccccc3)([C@@H]3CCCN3)O4)c1F)O2 (atropisomer, axis not shown) [Compound 123, (S)-7-((S)-5-Chloro-6-fluoro-2-phenyl-2-((S)-pyrrolidin-2-yl)-2,3-dihydrobenzofuran-4-yl)-6-fluoro-1-methyl-3-oxo-2,3-trihydrobenzo [5,6][1,4]dioxo [2,3-c]pyridazine-8-carboxamide] | < 50 nM | 200 to 500 nM |
| CNC[C@@]1(c2ccccc2)Cc2c(cc(F)c(Cl)c2-c2c(C(N)=O)cc3c(c2F)OCc2nn(C)cc2-3)O1 (atropisomer, axis not shown) [Compound 41, (S)-7-((S)-5-Chloro-6-fluoro-2-((methylamino)methyl)-2-phenyl-2,3-dihydrobenzofuran-4-yl)-6-fluoro-2-methyl-2,4-dihydrochromeno[3,4-c]pyrazole-8-carboxamide] | < 50 nM | < 200 nM |
| Cn1ncc2c(F)c(-c3c(Cl)c(F)cc4c3C[C@](c3ccccc3)([C@@H]3CCCN3)O4)c(C(N)=O)cc21 (atropisomer, axis not shown) [Compound I-28, (S)-5-((S)-5-Chloro-6-fluoro-2-phenyl-2-((S)-pyrrolidin-2-yl)-2,3-dihydrobenzofuran-4-yl)-4-fluoro-1-methyl-1H-indazole-6-carboxamide] | < 50 nM | < 200 nM |
| CNC(=O)c1cc2c(c(F)c1-c1c(Cl)c(F)cc3c1C[C@](c1ccccc1)([C@@H]1CCCN1)O3)Oc1c(cnn(CC(F)F)c1=O)O2 (atropisomer, axis not shown) [Compound 141, (S)-8-((S)-5-Chloro-6-fluoro-2-phenyl-2-((S)-pyrrolidin-2-yl)-2,3-dihydrobenzofuran-4-yl)-2-(2,2-difluoroethyl)-9-fluoro-N-methyl-1-oxo-1,2-dihydrobenzo[5,6][1,4]dioxo[2,3-d]pyridazine-7-carboxamide] | < 50 nM | < 200 nM |
| [2H]C1([2H])CC[C@]([2H])([C@@]2(c3ccccc3)Cc3c(cc(F)c(Cl)c3-c3c(C(=O)NC)cc4c(c3F)Oc3c(cnn(CCC(F)(F)F)c3=O)O4)O2)N1 (atropisomer, axis not shown) [Compound 159, (S)-8-((S)-5-Chloro-6-fluoro-2-phenyl-2-((S)-pyrrolidin-2-yl-2,5,5-d3)-2,3-dihydrobenzofuran-4-yl)-9-fluoro-N-methyl-1-oxo-2-(3,3,3-trifluoropropyl)-1,2-dihydroxybenzo [5,6][1,4]dioxo [2,3-d]pyridazine-7-carboxamide] | < 50 nM | < 200 nM |
| Cn1cc2c(n1)COc1c-2cc(C(N)=O)c(-c2c(Cl)c(F)cc3c2C[C@@](CN[C@H]2CC[C@H](O)CC2)(c2ccccc2)O3)c1F (atropisomer, axis not shown) [Compound 81] | < 50 nM | < 200 nM |
| NC(=O)c1cc2c(c(F)c1-c1c(Cl)c(F)cc3c1C[C@](c1ccccc1)([C@@H]1CCCN1)O3)Oc1c(cnn(CC(F)(F)F)c1=O)O2 (atropisomer, axis not shown) [Compound 143, (S)-8-((S)-5-Chloro-6-fluoro-2-phenyl-2-((S)-pyrrolidin-2-yl)-2,3-dihydrobenzofuran-4-yl)-9-fluoro-1-oxo-2-(2,2,2-trifluoroethyl)-1,2-dihydroxybenzo[5,6][1,4]dioxo[2,3-d]pyridazine-7-carboxamide] | < 50 nM | < 200 nM |
| CNC(=O)c1cc2c(c(F)c1-c1c(Cl)c(F)cc3c1CC(c1ccccc1)(C1CCCN1)O3)Oc1c(cnn(C)c1=O)O2 [Compound 124, (S)-8-((S)-5-Chloro-6-fluoro-2-phenyl-2-((S)-pyrrolidin-2-yl)-2,3-dihydrobenzofuran-4-yl)-9-fluoro-N,2-dimethyl-1-oxo-1,2-dihydrobenzo[5,6][1,4]dioxo[2,3-d]pyridazine-7-carboxamide] | < 50 nM | < 200 nM |
| NC(=O)c1cc2c(c(F)c1-c1c(Cl)c(F)cc3c1C[C@](c1ccccc1)([C@@H]1CCCN1)O3)OCC21CCNCC1 (atropisomer, axis not shown) [Compound 44, (S)-6-((S)-5-Chloro-6-fluoro-2-phenyl-2-((S)-pyrrolidin-2-yl)-2,3-dihydrobenzofuran-4-yl)-7-fluoro-2H-spiro [benzofuran-3,4′-piperidine]-5-carboxamide] | 50 to 500 nM | > 5000 nM |
